According to patent US20250304625A1, “ARTICLES AND METHODS FOR INHIBITING METHIONINE AMINOPEPTIDASE ACTIVITY” (Vanderbilt University, priority 2022, published 2025):

Assays:
TKPTS cells [1] = assay: TKPTS cell proliferation by CellTrace flow cytometry; assay type: cell-based, murine; settings: Zng1 mutant cells compared to WT, 3 μM TPA, three days
Protocol: TKPTS cells were seeding at 2,000 to 4,000 cells per well of 24- or 12-well tissue culture treated multi-well plates and incubated overnight at 37° C. Cells were staining with CellTRACE violet (Invitrogen, C34557) as described by manufacturer's protocol. Briefly, CellTRACE solution was prepared in PBS at a 1:1,000 dilution, added to the cells, and cells were incubated for 20 min at 37° C. Cells were then washed two times in cell culture media supplemented with 7% FBS, and replaced with fresh cell culture media supplemented with desired chemical treatments (3 μM TPA, Sigma, 723134; 5 μg/ml TNP470, Sigma, T1455; or 50 nM Bengamide B, Santa cruz, sc-397521A). Stock solutions of drugs were prepared in ACS-grade DMSO (Fisher Scientific, D136). […] After three days of growth, cells were stained with MitoTracker far-red (Invitrogen, M22426; 1:2500 dilution for 20 min at 37° C.) and MitoSOX red (Molecular probes, M36008: 1,1000 for 20 min at 37° C.) following manufacture's protocols. Cells were washed with PBS, trypsinized, and transferred to Eppendorf tubes prior to fixation in 4% PFA (Alfa aesar, J61899). Cells were fixed for 20 min at room temperature, centrifuged at 200×g for 10 min and washed with PBS prior to resuspension in 300 μl FACS buffer (2% FBS, 0.02% sodium azide in PBS). All flow cytometry data were collected using a BD LSRII flow cytometer with FACSDIVA software and analyzed using FlowJo (FlowJo LLC). Samples were gated forward scatter height (FSC-H) by forward scatter area (FSC-A) and side scatter height (SSC-H) by side scatter area (SSC-A) to remove doublet populations. The singlet population was gated SSC-A by FSC-A to isolate live cells. The resulting cell population was then assessed for assay-specific fluorescent markers and the median fluorescence intensity (MFI) quantified.

TKPTS cells [2] = assay: Seahorse XF96 cell mitochondrial stress test (oxygen consumption rate); assay type: cell-based, murine; settings: Zng1^−/− cells pre-treated with 3 μM TPA
Protocol: 8,000 WT or Zng1 mutant vehicle treated TKPTS cells or TKPTS cells serially passaged in 3 μM TPA (Sigma, 723134) were plated in individual wells of seahorse plates in complete DMEM F12 media described above. Cells were resuspended in mitochondria assay media (Seahorse Agilent pH 7.4 media+1 mM pyruvate+10 mM glucose+2 mM glutamine). No TKPTS cells were added to the four wells in the corners of the plate as a background control. For the mitochondrial stress test, the cartridge was sequentially loaded with oligomycin (15 μM), FCCP (15 μM), and rotenone/antimycin A (5 μM) (diluted in mitochondria assay media) for injection into the wells. To normalize across wells by cell density, the Seahorse plate was imaged using a BioTek Cytation 5. Oxygen consumption and extracellular acidification rates were collected using a Seahorse XFe96 Analyzer and analyzed using Wave Desktop software (Agilent Technologies).

cell lines = settings: compared to other chelators (e.g. TPEN); cited from earlier work
zng1 transcript = assay: zng1 expression in whole zebrafish larvae (qPCR); assay type: in vivo; settings: WT larvae, immersion, 20 μM TPEN vs ethanol vehicle
Protocol: For all experiments larval zebrafish were bred naturally and collected into embryo media and were maintained at 28° C. on a 14/10 h light/dark cycle for duration of experiments. For survival experiments, zebrafish larvae were split into even densities into 6 or 12 multi-well plates in 5 mL or 1 mL embryo media respectively at 3 dpf. Stock solutions of METAP2 inhibitor TNP-470 (Sigma, T1455) and METAP1/2 inhibitor Bengamide B (Santa cruz, sc-397521A) were prepared in ACS-grade DMSO (Fisher Scientific, D136) and TPEN (Sigma, P4413) was prepared in ethanol and stored at −20° C. TNP-470, Bengamide B, and/or TPEN were applied into embryo media as well as a DMSO and/or ethanol vehicle controls at 3 dpf. Zebrafish survival was monitored daily until 6 dpf and all moribund or dead animals were removed. […]
For RNA isolation from dissected mouse tissue, mice were humanely euthanized, tissues harvested and immediately flash frozen in liquid nitrogen and stored at −80C. […] Quantitative PCR was performed in duplicate-quadruplicate 25 μL reactions using 2× iQ SYBR Green SuperMix (BioRad, 1708882) run on an BioRad CFX96 Real-Time System instrument using gene-specific primers (zebrafish: P34-P39, mice: P40-P43, cell lines: 44-69, Table S5). Data were analyzed with the ΔΔCt method (Livak and Schmittgen, 2001) or presented as relative expression values.

Row | Compound | proliferation (CellTrace dye retention) (TKPTS cells [1]) | basal and maximal respiration, ATP production, and proton leak (OCR) (TKPTS cells [2]) | cytotoxicity towards cell lines (cell lines) | zng1 transcript (zng1 transcript)
1 | c1ccc(CN(Cc2ccccn2)Cc2ccccn2)nc1 [TPA, tris(2-pyridylmethyl)amine] | significantly slowed proliferation | significantly impaired | lower cytotoxicity | 
2 | c1ccc(CN(CCN(Cc2ccccn2)Cc2ccccn2)Cc2ccccn2)nc1 [TPEN, N,N,N′,N′-Tetrakis(2-pyridylmethyl)ethylenediamine] |  |  |  | significant induction
